From patent US11332476B2, “Fms-like tyrosine kinase inhibitors” (3SM BIOTRON INC., priority 2018, dated 2022)

Molecular target: T1, FLT3 (Homo sapiens, UniProt P36888)
T1 sequence (P36888 27-993): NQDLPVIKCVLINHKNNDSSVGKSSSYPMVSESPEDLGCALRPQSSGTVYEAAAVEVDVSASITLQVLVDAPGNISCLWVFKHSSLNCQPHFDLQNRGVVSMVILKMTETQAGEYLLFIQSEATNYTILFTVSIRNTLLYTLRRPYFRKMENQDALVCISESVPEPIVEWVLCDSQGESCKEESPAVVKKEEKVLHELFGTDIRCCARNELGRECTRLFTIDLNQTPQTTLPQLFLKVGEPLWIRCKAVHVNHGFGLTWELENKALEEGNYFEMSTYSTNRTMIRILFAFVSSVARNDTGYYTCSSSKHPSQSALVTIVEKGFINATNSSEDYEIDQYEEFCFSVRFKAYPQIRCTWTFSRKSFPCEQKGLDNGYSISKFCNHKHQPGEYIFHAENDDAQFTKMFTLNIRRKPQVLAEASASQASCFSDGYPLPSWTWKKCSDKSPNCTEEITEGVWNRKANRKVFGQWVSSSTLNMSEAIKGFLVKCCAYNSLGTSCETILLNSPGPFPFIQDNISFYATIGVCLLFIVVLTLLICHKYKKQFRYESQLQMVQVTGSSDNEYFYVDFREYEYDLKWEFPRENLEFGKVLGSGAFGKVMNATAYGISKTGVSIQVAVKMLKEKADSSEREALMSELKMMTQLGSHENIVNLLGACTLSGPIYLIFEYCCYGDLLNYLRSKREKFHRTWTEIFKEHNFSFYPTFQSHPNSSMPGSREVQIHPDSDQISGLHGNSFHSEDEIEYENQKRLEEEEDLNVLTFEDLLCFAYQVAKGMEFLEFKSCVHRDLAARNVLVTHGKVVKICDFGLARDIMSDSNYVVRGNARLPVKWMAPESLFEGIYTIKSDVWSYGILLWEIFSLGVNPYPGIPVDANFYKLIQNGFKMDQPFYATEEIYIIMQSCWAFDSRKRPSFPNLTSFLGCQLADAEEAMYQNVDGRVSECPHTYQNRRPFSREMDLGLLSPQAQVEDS
Assay: Inhibition of FLT3, 33P-ATP kinase assay with filter-binding detection
Format: biochemical
Settings: 33P-ATP 10 uM, 2 hours at room temperature, filter-binding method
Procedure: Prepare indicated substrate in freshly prepared Base Reaction Buffer (20 mM Hepes (pH 7.5), 10 mM MgCl2, 1 mM EGTA, 0.02% Brij35, 0.02 mg/ml BSA, 0.1 mM Na3VO4, 2 mM DTT, 1% DMSO). Deliver any required cofactors to the substrate solution above. Deliver indicated kinase into the substrate solution and gently mix. The testing compounds in DMSO was added into the kinase reaction mixture by Acoustic technology (Echo550; nanoliter range) and incubated for 20 minutes at room temperature. Deliver 33P-ATP (specific activity […]) into the reaction mixture to initiate the reaction. Incubate kinase reaction for 2 hours at room temperature. Reactions are spotted onto P81 ion exchange paper. Detect kinase activity by filter-binding method.
Inhibition of FLT3 with 4-Quinolone Derivatives

Going from Nc1nc2ccccc2c2c1S(=O)(=O)c1ccc(Cl)cc1C2=O [compound 7001, 6-Amino-10-chloro-12H-thiochromeno[2,3-c]quinolin-12-one 7,7-dioxide] to Cc1ccc2sc3c(NCCN)nc4ccccc4c3c(=O)c2c1 [compound 7231, 6-(2-aminoethylamino)-10-methyl-12H-thiochromeno[2,3-c]quinolin-12-one], the IC50 falls from > 1000 nM to < 51 nM.

NCCCNc1nc2ccccc2c2c(=O)c3cc(C(F)(F)F)ccc3sc12 [compound 7201, 6-(3-aminopropylamino)-10-trifluoromethyl-12H-thiochromeno[2,3-c]quinolin-12-one] and NCCCNc1nc2ccccc2c2c(=O)c3cc(OC(F)(F)F)ccc3sc12 [compound 7203, 6-(3-aminopropylamino)-10-(trifluoromethoxy)-12H-thiochromeno[2,3-c]quinolin-12-one] cannot be ordered by IC50: > 1000 nM for the first, > 1000 nM for the second.

Compared with Cc1ccc2sc3c(NCCCN)nc4ccccc4c3c(=O)c2c1 [compound 7202, 6-(3-aminopropylamino)-10-methyl-12H-thiochromeno[2,3-c]quinolin-12-one], CCNc1nc2ccccc2c2c(=O)c3cc(C)ccc3sc12 [compound 7232, 6-(ethylamino)-10-methyl-12H-thiochromeno[2,3-c]quinolin-12-one] is higher in IC50: 51 to 200 nM for the first, > 1000 nM for the second. The first is the more potent here.

NCCCNc1nc2ccccc2c2c(=O)c3cccc(F)c3sc12 [compound 7211, 6-(3-aminopropylamino)-8-fluoro-12H-thiochromeno[2,3-c]quinolin-12-one] and NCCNc1nc2ccccc2c2c(=O)c3cccc(F)c3sc12 [compound 7240, 6-(2-aminoethylamino)-8-fluoro-12H-thiochromeno[2,3-c]quinolin-12-one] cannot be ordered by IC50: < 51 nM for the first, < 51 nM for the second.

COc1cccc2c(=O)c3c(sc12)c(NCCCN)nc1ccccc13 [compound 7212, 6-(3-aminopropylamino)-8-methoxy-12H-thiochromeno[2,3-c]quinolin-12-one] and COc1cccc2c(=O)c3c(sc12)c(NCCN)nc1ccccc13 [compound 7244, 6-(2-aminoethylamino)-8-methoxy-12H-thiochromeno[2,3-c]quinolin-12-one] cannot be ordered by IC50: < 51 nM for the first, < 51 nM for the second.

Compared with NCCCNc1nc2ccccc2c2c(=O)c3cc(F)cc(Cl)c3sc12 [compound 7213, 6-(3-aminopropylamino)-8-chloro-10-fluoro-12H-thiochromeno[2,3-c]quinolin-12-one], NCCNc1nc2ccccc2c2c(=O)c3cc(F)cc(Cl)c3sc12 [compound 7248, 6-(2-aminoethylamino)-8-chloro-10-fluoro-12H-thiochromeno[2,3-c]quinolin-12-one] is lower in IC50: > 1000 nM for the first, 51 to 200 nM for the second. The second is the more potent here.

Compared with O=c1c2cc(C(F)(F)F)ccc2sc2c(NCCCNCCO)nc3ccccc3c12 [compound 7214, 6-(3-(2-hydroxyethylamino)propylamino)-10-trifluoromethyl-12H-thiochromeno[2,3-c]quinolin-12-one], Cc1ccc2sc3c(NCCCNCCO)nc4ccccc4c3c(=O)c2c1 [compound 7215, 6-(3-(2-hydroxyethylamino)propylamino)-10-methyl-12H-thiochromeno[2,3-c]quinolin-12-one] is lower in IC50: > 1000 nM for the first, 201 to 500 nM for the second. The second is the more potent here.

O=c1c2cccc(F)c2sc2c(NCCCNCCO)nc3ccccc3c12 [compound 7224, 8-fluoro-6-(3-(2-hydroxyethylamino)propylamino)-12H-thiochromeno[2,3-c]quinolin-12-one] and COc1cccc2c(=O)c3c(sc12)c(NCCCNCCO)nc1ccccc13 [compound 7225, 6-(3-(2-hydroxyethylamino)propylamino)-8-methoxy-12H-thiochromeno[2,3-c]quinolin-12-one] fall in the same range of IC50: 201 to 500 nM for the first, 201 to 500 nM for the second.

O=c1c2cc(F)cc(Cl)c2sc2c(NCCCNCCO)nc3ccccc3c12 [compound 7226, 8-chloro-10-fluoro-6-(3-(2-hydroxyethylamino)propylamino)-12H-thiochromeno[2,3-c]quinolin-12-one] and O=c1c2cc(F)cc(F)c2sc2c(NCCCNCCO)nc3ccccc3c12 [compound 7253, 8,10-difluoro-6-(3-(2-hydroxyethylamino)propylamino)-12H-thiochromeno[2,3-c]quinolin-12-one] cannot be ordered by IC50: > 1000 nM for the first, > 1000 nM for the second.

Cc1ccc2sc3c(NCc4ccccc4)nc4ccccc4c3c(=O)c2c1 [compound 7233, 6-(benzylamino)-10-methyl-12H-thiochromeno[2,3-c]quinolin-12-one] and O=c1c2cc(F)ccc2sc2c(NCc3ccccc3)nc3ccc(F)cc3c12 [compound 7424, 6-(benzylamino)-2,10-difluoro-12H-thiochromeno[2,3-c]quinolin-12-one] cannot be ordered by IC50: > 1000 nM for the first, > 1000 nM for the second.

CCNc1nc2ccccc2c2c(=O)c3cccc(F)c3sc12 [compound 7241, 6-(ethylamino)-8-fluoro-12H-thiochromeno[2,3-c]quinolin-12-one] and CCNc1nc2ccccc2c2c(=O)c3cccc(OC)c3sc12 [compound 7245, 6-(ethylamino)-8-methoxy-12H-thiochromeno[2,3-c]quinolin-12-one] cannot be ordered by IC50: > 1000 nM for the first, > 1000 nM for the second.

Compared with COc1cccc2c(=O)c3c(sc12)c(N1CCNCC1)nc1ccccc13 [compound 7247, 8-methoxy-6-(piperazin-1-yl)-12H-thiochromeno[2,3-c]quinolin-12-one], O=c1c2cc(F)ccc2sc2c(N3CCNCC3)nc3ccc(F)cc3c12 [compound 7425, 2,10-difluoro-6-(piperazin-1-yl)-12H-thiochromeno[2,3-c]quinolin-12-one] is higher in IC50: 51 to 200 nM for the first, > 1000 nM for the second.

First: NCCCNc1nc2ccccc2c2c(=O)c3cc(F)cc(F)c3sc12 [compound 7252, 6-(3-aminopropylamino)-8,10-difluoro-12H-thiochromeno[2,3-c]quinolin-12-one]
Second: NCCNc1nc2ccccc2c2c(=O)c3cc(F)cc(F)c3sc12 [compound 7254, 6-(2-aminoethylamino)-8,10-difluoro-12H-thiochromeno[2,3-c]quinolin-12-one]
The IC50 of the first is higher: 201 to 500 nM for the first, 51 to 200 nM for the second.

NCCCNc1nc2ccc(F)cc2c2c(=O)c3cc(F)ccc3sc12 [compound 7402, 6-(3-aminopropylamino)-2,10-difluoro-12H-thiochromeno[2,3-c]quinolin-12-one] and NCCNc1nc2ccc(F)cc2c2c(=O)c3cc(F)ccc3sc12 [compound 7422, 6-(2-aminoethylamino)-2,10-difluoro-12H-thiochromeno[2,3-c]quinolin-12-one] cannot be ordered by IC50: > 1000 nM for the first, > 1000 nM for the second.

NCCCNc1nc2ccc(Cl)cc2c2c(=O)c3cc(F)ccc3sc12 [compound 7403, 6-((3-aminopropyl)amino)-2-chloro-10-fluoro-12H-thiochromeno[2,3-c]quinolin-12-one] and O=c1c2cc(F)ccc2sc2c(NCCCNCCO)nc3ccc(Cl)cc3c12 [compound 7406, 2-chloro-10-fluoro-6-(3-(2-hydroxyethylamino)propylamino)-12H-thiochromeno[2,3-c]quinolin-12-one] cannot be ordered by IC50: > 1000 nM for the first, > 1000 nM for the second.

COc1ccc2nc(NCCCNCCO)c3sc4ccc(F)cc4c(=O)c3c2c1 [compound 7407, 10-fluoro-6-(3-(2-hydroxyethylamino)propylamino)-2-methoxy-12H-thiochromeno[2,3-c]quinolin-12-one] and O=c1c2cc(F)ccc2sc2c(NCCCNCCO)nc3ccc(F)cc3c12 [compound 7408, 2,10-difluoro-6-(3-(2-hydroxyethylamino)propylamino)-12H-thiochromeno[2,3-c]quinolin-12-one] cannot be ordered by IC50: > 1000 nM for the first, > 1000 nM for the second.
